Data taken from PMC11172375, “Preclinical Evaluation of Biodistribution and Toxicity of [^211At]PSMA-5 in Mice and Primates for the Targeted Alpha Therapy against Prostate Cancer” (International Journal of Molecular Sciences, 2024).

Assays:
[1] = TLC metabolite analysis of blood samples, mice; type: in vivo; conditions: plasma
Experimental: Monkeys were anesthetized with intramuscular administration of ketamine (10 mg/kg) and xylazine (0.5 mg/kg) with isoflurane inhalation anesthesia. Planar and Single Photon Emission Computed Tomography (SPECT) imaging was performed in monkeys using a γ-camera system (E-cam, Siemens, Erlangen, Germany) immediately after administration to 1 h and at 3 and 24 h post-administration of [^211At]PSMA-5 (9 MBq/kg), targeting the X-rays emitted from the daughter nuclide ^211Po (energy window: 79 keV ± 20%). Subsequent image analysis was performed by setting the regions of interest using Osirix MD software (Version 13, Pixmeo SARL, Bernex, Switzerland) and PMOD software (Version 3.903, PMOD Technologies, Fällanden, Switzerland). Blood samples were obtained pre-administration and at 1, 3, and 24 h post-administration, followed by euthanasia via bloodletting at 24 h.
The blood samples were centrifuged at 3000 rpm for 5 min, and the resulting plasma was mixed with twice the volume of ethanol, then agitated vigorously. The supernatants were analyzed by thin-layer chromatography (TLC).

[2] = Blood chemistry examination in mice; type: in vivo, ICR mice
Experimental: [^211At]PSMA-5 was administered intravenously to 25 mice, and its biodistribution was evaluated. For the toxicity study, three doses of [^211At]PSMA-5 (5, 12, and 35 MBq/kg, single dose) or saline were intravenously administered to 10 mice/group for the main evaluation point on day 1, and 5-mice/group for recovery evaluation on day 14, adhering to the ICH M3 (R2) guidelines. The dosage was determined based on our previous study using [^211At]NaAt. The monkeys were monitored for 24 h post-administration of [^211At]PSMA-5 (9 MBq/kg).
A blood cell counter was used for the measurements (CB-1010; ARKRAY, Inc., Kyoto, Japan). Red blood cell count (RBC), hemoglobin concentration (Hb), hematocrit (Ht), white blood cell count (WBC), platelet count (platelet), lymphocytes (%Lymph), monocytes (%Mon), and granulocytes (%Gra) were calculated. Plasma was analyzed using a dry clinical chemistry analyzer (Spotchem D-00 QR D-02; ARKRAY, Inc., Kyoto, Japan). The levels of aspartate aminotransferase (AST), alanine aminotransferase (ALT), gamma-glutamyl transpeptidase (γ-GTP), lactate dehydrogenase (LDH), alkaline phosphatase (ALP), creatine kinase (CK), amylase (AMY), total bilirubin (TBIL), creatinine (CRE), urea nitrogen (BUN), glucose (GLU), total protein (TP), albumin (ALB), total cholesterol (TCHO), triglyceride (TG), and electrolytes (Na, K, and Cl) were measured.

In the case of `O=C(O)CC[C@H](NC(=O)N[C@@H](CCCCNC(=O)[C@@H](Cc1ccc2ccccc2c1)NC(=O)c1ccc(CNC(=O)[C@@H](CCC(=O)O)NC(=O)[C@@H](CCC(=O)O)NC(=O)Cc2ccc([211At])cc2)cc1)C(=O)O)C(=O)O` [[^211At]PSMA-5], the “metabolites in blood samples (TLC)” value [1] is reported as “no metabolites were detected”, the ALB ([2]; 5 MBq/kg i.v., day 1) is reported as 2.3 ± 0.2 g/dL and the ALP ([2]; 5 MBq/kg i.v., day 1) is reported as 194 ± 86 IU/L. For the same molecule, the ALT ([2]; 5 MBq/kg i.v., day 1) was 41.2 ± 31.6 IU/L, the AMY ([2]; 5 MBq/kg i.v., day 1) was 2675 ± 562 IU/L and the AST ([2]; 5 MBq/kg i.v., day 1) was 43.8 ± 30.3 IU/L. It also gave a BUN ([2]; 5 MBq/kg i.v., day 1) of 22 ± 8.3 mg/dL, a CK ([2]; 5 MBq/kg i.v., day 1) of 180 ± 60 IU/L and a CRE ([2]; 5 MBq/kg i.v., day 1) of 0.2 ± 0 mg/dL. For the same molecule, the GLU ([2]; 5 MBq/kg i.v., day 1) was 198 ± 70 mg/dL, the K ([2]; 5 MBq/kg i.v., day 1) was 4.5 ± 0.5 mEq/L and the LDH ([2]; 5 MBq/kg i.v., day 1) was 641 ± 281 IU/L. For the same molecule, the Na ([2]; 5 MBq/kg i.v., day 1) was 141 ± 2.5 mEq/L, the TBIL ([2]; 5 MBq/kg i.v., day 1) was 0.6 ± 0.22 mg/dL and the TCHO ([2]; 5 MBq/kg i.v., day 1) was 130 ± 20 mg/dL. The TG ([2]; 5 MBq/kg i.v., day 1) was 112 ± 75 mg/dL, the TP ([2]; 5 MBq/kg i.v., day 1) was 4.1 ± 0.4 g/dL and the γ-GTP ([2]; 5 MBq/kg i.v., day 1) was 10 ± 0 IU/L. It also gave an ALB ([2]; 5 MBq/kg i.v., day 14) of 2.2 ± 0.1 g/dL, an ALP ([2]; 5 MBq/kg i.v., day 14) of 171 ± 36 IU/L and an ALT ([2]; 5 MBq/kg i.v., day 14) of 16.5 ± 4.9 IU/L. For the same molecule, the AMY ([2]; 5 MBq/kg i.v., day 14) was 2200 ± 428 IU/L, the AST ([2]; 5 MBq/kg i.v., day 14) was 45 ± 22.7 IU/L and the BUN ([2]; 5 MBq/kg i.v., day 14) was 27.6 ± 1.1 mg/dL. For the same molecule, the CK ([2]; 5 MBq/kg i.v., day 14) was 162 ± 91 IU/L, the CRE ([2]; 5 MBq/kg i.v., day 14) was 0.2 ± 0 mg/dL and the GLU ([2]; 5 MBq/kg i.v., day 14) was 146 ± 39 mg/dL. The K ([2]; 5 MBq/kg i.v., day 14) was 5.1 ± 1.2 mEq/L, the LDH ([2]; 5 MBq/kg i.v., day 14) was 611 ± 24 IU/L and the Na ([2]; 5 MBq/kg i.v., day 14) was 143 ± 1.9 mEq/L. The TBIL ([2]; 5 MBq/kg i.v., day 14) was 0.88 ± 0.16 mg/dL, the TCHO ([2]; 5 MBq/kg i.v., day 14) was 151 ± 18 mg/dL and the TG ([2]; 5 MBq/kg i.v., day 14) was 75 ± 17 mg/dL. The TP ([2]; 5 MBq/kg i.v., day 14) was 4.1 ± 0.5 g/dL, the γ-GTP ([2]; 5 MBq/kg i.v., day 14) was 10 ± 0 IU/L and the ALB ([2]; 12 MBq/kg i.v., day 1) was 2.3 ± 0.2 g/dL. The ALP ([2]; 12 MBq/kg i.v., day 1) was 193 ± 100 IU/L, the ALT ([2]; 12 MBq/kg i.v., day 1) was 29.0 ± 5.8 IU/L and the AMY ([2]; 12 MBq/kg i.v., day 1) was 2666 ± 537 IU/L. For the same molecule, the AST ([2]; 12 MBq/kg i.v., day 1) was 37 ± 11.5 IU/L, the BUN ([2]; 12 MBq/kg i.v., day 1) was 20.7 ± 8.3 mg/dL and the CK ([2]; 12 MBq/kg i.v., day 1) was 192 ± 50 IU/L. For the same molecule, the CRE ([2]; 12 MBq/kg i.v., day 1) was 0.2 ± 0 mg/dL, the GLU ([2]; 12 MBq/kg i.v., day 1) was 185 ± 42 mg/dL and the K ([2]; 12 MBq/kg i.v., day 1) was 4.5 ± 0.3 mEq/L. The LDH ([2]; 12 MBq/kg i.v., day 1) was 736 ± 363 IU/L, the Na ([2]; 12 MBq/kg i.v., day 1) was 142 ± 2.0 mEq/L and the TBIL ([2]; 12 MBq/kg i.v., day 1) was 0.53 ± 0.16 mg/dL. The TCHO ([2]; 12 MBq/kg i.v., day 1) was 128 ± 20 mg/dL, the TG ([2]; 12 MBq/kg i.v., day 1) was 119 ± 75 mg/dL and the TP ([2]; 12 MBq/kg i.v., day 1) was 4.1 ± 0.3 g/dL. The γ-GTP ([2]; 12 MBq/kg i.v., day 1) was 10 ± 0 IU/L, the ALB ([2]; 12 MBq/kg i.v., day 14) was 2.1 ± 0.3 g/dL and the ALP ([2]; 12 MBq/kg i.v., day 14) was 110 ± 59 IU/L. For the same molecule, the ALT ([2]; 12 MBq/kg i.v., day 14) was 21.5 ± 0.7 IU/L, the AMY ([2]; 12 MBq/kg i.v., day 14) was 2514 ± 549 IU/L and the AST ([2]; 12 MBq/kg i.v., day 14) was 28.8 ± 15.4 IU/L. The BUN ([2]; 12 MBq/kg i.v., day 14) was 30.6 ± 6.1 mg/dL, the CK ([2]; 12 MBq/kg i.v., day 14) was 144 ± 26 IU/L and the CRE ([2]; 12 MBq/kg i.v., day 14) was 0.22 ± 0.04 mg/dL. It also gave a GLU ([2]; 12 MBq/kg i.v., day 14) of 148 ± 24 mg/dL, a K ([2]; 12 MBq/kg i.v., day 14) of 5.4 ± 0.8 mEq/L and an LDH ([2]; 12 MBq/kg i.v., day 14) of 456 ± 72 IU/L. For the same molecule, the Na ([2]; 12 MBq/kg i.v., day 14) was 143 ± 2.8 mEq/L, the TBIL ([2]; 12 MBq/kg i.v., day 14) was 0.68 ± 0.13 mg/dL and the TCHO ([2]; 12 MBq/kg i.v., day 14) was 138 ± 20 mg/dL. For the same molecule, the TG ([2]; 12 MBq/kg i.v., day 14) was 87 ± 42 mg/dL, the TP ([2]; 12 MBq/kg i.v., day 14) was 3.9 ± 0.4 g/dL and the γ-GTP ([2]; 12 MBq/kg i.v., day 14) was 10 ± 0 IU/L. It also gave an ALB ([2]; 35 MBq/kg i.v., day 1) of 2.2 ± 0.1 g/dL, an ALP ([2]; 35 MBq/kg i.v., day 1) of 208 ± 67 IU/L and an ALT ([2]; 35 MBq/kg i.v., day 1) of 53.0 ± 10.3 IU/L. The AMY ([2]; 35 MBq/kg i.v., day 1) was 2795 ± 363 IU/L, the BUN ([2]; 35 MBq/kg i.v., day 1) was 19.6 ± 6.2 mg/dL and the CK ([2]; 35 MBq/kg i.v., day 1) was 170 ± 65 IU/L. The CRE ([2]; 35 MBq/kg i.v., day 1) was 0.2 ± 0 mg/dL, the GLU ([2]; 35 MBq/kg i.v., day 1) was 201 ± 31 mg/dL and the K ([2]; 35 MBq/kg i.v., day 1) was 5.1 ± 0.5 mEq/L. For the same molecule, the LDH ([2]; 35 MBq/kg i.v., day 1) was 638 ± 385 IU/L, the Na ([2]; 35 MBq/kg i.v., day 1) was 140 ± 1.4 mEq/L and the TBIL ([2]; 35 MBq/kg i.v., day 1) was 0.71 ± 0.48 mg/dL. The TCHO ([2]; 35 MBq/kg i.v., day 1) was 129 ± 21 mg/dL, the TG ([2]; 35 MBq/kg i.v., day 1) was 122 ± 79 mg/dL and the TP ([2]; 35 MBq/kg i.v., day 1) was 4.0 ± 0.3 g/dL. The γ-GTP ([2]; 35 MBq/kg i.v., day 1) was 10 ± 0 IU/L, the AST ([2]; 35 MBq/kg i.v., day 1, hemolysis was observed) was 51.5 ± 36.2 IU/L and the ALB ([2]; 35 MBq/kg i.v., day 14) was 2.3 ± 0.1 g/dL. The ALP ([2]; 35 MBq/kg i.v., day 14) was 133 ± 46 IU/L, the ALT ([2]; 35 MBq/kg i.v., day 14) was 13.0 ± 0.0 IU/L and the AMY ([2]; 35 MBq/kg i.v., day 14) was 2678 ± 388 IU/L. For the same molecule, the AST ([2]; 35 MBq/kg i.v., day 14) was 28.4 ± 9.9 IU/L, the BUN ([2]; 35 MBq/kg i.v., day 14) was 23.4 ± 3.4 mg/dL and the CK ([2]; 35 MBq/kg i.v., day 14) was 141 ± 18 IU/L. The CRE ([2]; 35 MBq/kg i.v., day 14) was 0.2 ± 0 mg/dL, the GLU ([2]; 35 MBq/kg i.v., day 14) was 141 ± 21 mg/dL and the K ([2]; 35 MBq/kg i.v., day 14) was 4.7 ± 0.6 mEq/L. It also gave an LDH ([2]; 35 MBq/kg i.v., day 14) of 538 ± 129 IU/L, a Na ([2]; 35 MBq/kg i.v., day 14) of 143 ± 2.6 mEq/L and a TBIL ([2]; 35 MBq/kg i.v., day 14) of 0.68 ± 0.33 mg/dL. It also gave a TCHO ([2]; 35 MBq/kg i.v., day 14) of 144 ± 15 mg/dL, a TG ([2]; 35 MBq/kg i.v., day 14) of 67 ± 18 mg/dL and a TP ([2]; 35 MBq/kg i.v., day 14) of 4.1 ± 0.2 g/dL. It also gave a γ-GTP ([2]; 35 MBq/kg i.v., day 14) of 10 ± 0 IU/L.
